This is an account of results in patent US9867372B2, “Tetrazolinone compound and use of same” (SUMITOMO CHEMICAL COMPANY, LIMITED, priority 2013, dated 2018).

The first data set relates to barley net blotch fungus (Pyrenophora teres). Nature of the data set: barley net blotch control test, foliar spray before inoculation. It is filed as in vivo. The following applies: 3.1 ppm, sprayed 2 days before inoculation (Test Example 1, Comparative Example 1).
For `Cn1nnn(-c2ccccc2COc2cccc(-c3ccccc3)n2)c1=O` [1-methyl-4-[2-(6-phenylpyridin-2-yloxymethyl)-phenyl]-1,4-dihydrotetrazol-5-one, reference compound], the “area of lesion spots on the treated plant relative to that on an untreated plant” value is recorded as ≥ 70%.

On to `Cc1cccc(-n2nnn(C)c2=O)c1COc1cccc(-c2ccccc2)n1` [compound 1, 1-methyl-4-[3-methyl-2-(6-phenylpyridin-2-yloxymethyl)phenyl]-1,4-dihydrotetrazol-5-one], for which the “area of lesion spots on the treated plant relative to that on an untreated plant” value is listed as ≤ 30%.

A further data set relates to (Adoxophyes orana). Nature of the data set: Adoxophyes orana larvae mortality test, treated artificial diet. The following applies: 500 ppm, 1 mL on Silkmate 2S, first instar larvae, after 7 days (Test Example 26). It is filed as in vivo.
With `COc1ccccc1-c1cccc(OCc2c(C)cccc2-n2nnn(C)c2=O)c1` [compound 52], the mortality came to 100%.

The subject of the next data set is tomato late blight fungus (Phytophthora infestans).
Assay: not given
It is filed as in vivo. As to conditions: 500 ppm, sprayed 2 days before inoculation (Test Example 17).
With `COc1ccc(-c2cccc(OCc3c(C)cccc3-n3nnn(C)c3=O)c2)cn1` [compound 57], the “area of lesion spots on the treated plant relative to that on an untreated plant” value is given as ≤ 30%.

In a further data set the test system is common cutworm (Spodoptela litura). Nature of the data set: common cutworm larvae mortality test, treated artificial diet. The following applies: 500 ppm, 2 mL on Insecta LF, third instar larvae, after 6 days (Test Example 25). It is filed as in vivo.
`COc1ccccc1-c1cccc(OCc2c(C)cccc2-n2nnn(C)c2=O)c1` [compound 52] registered a mortality of 100%.

The next data set concerns cotton aphid (Aphis gossypii). Briefly: cotton aphid control test on cucumber, spray. It is filed as in vivo. As to conditions: 144 h, 20 mL sprayed, counted after 6 days (Test Example 20). Here is the method: Thirty (30) heads of cotton aphid (Aphis gossypii) (including adults and larvae) were released on the leaves of cucumber (cultivar: […]) grown in a polyethylene cup until the first true leaf was developed. Next day, 20 mL of the above test chemical solution was sprayed. […] Control value (%)={1-(Cb×Tai)/(Cai×Tb)}×100 wherein symbols in the equation represent the followings: Cb: Number of insects before spraying chemical solution in untreated area; Cai: Number of surviving insects in untreated area; Tb: Number of insects before spraying chemical solution in treated area; and Tai: Number of surviving insects in treated area.
Turning to `Cc1cccc(-n2nnn(C)c2=O)c1COc1cc(-c2ccc(Cl)cc2)ccc1F` [compound 134], the pest or weed control at 500 ppm was ≥ 90%.

For `COc1ccc(-c2cccc(OCc3c(C)cccc3-n3nnn(C)c3=O)c2)nn1` [compound 165, 1-{2-[3-(3-methoxypyridazin-6-yl)phenoxymethyl]-3-methylphenyl}-4-methyl-1,4-dihydrotetrazol-5-one], the pest or weed control at 500 ppm is ≥ 90%.

In the case of `COc1ccc(-c2cccc(OCc3c(OC)cccc3-n3nnn(C)c3=O)c2)cc1` [compound 44], the pest or weed control at 500 ppm was ≥ 90%.

Turning to `Cc1cccc(-n2nnn(C)c2=O)c1COc1cccc(-c2ccc3ocnc3c2)c1` [compound 159], the pest or weed control at 500 ppm is ≥ 90%.

For `Cc1cccc(-n2nnn(C)c2=O)c1COc1cc(-c2ccccc2)ccc1Cl` [compound 128], the pest or weed control at 500 ppm is ≥ 90%.

`Cc1ccc(OCc2c(C)cccc2-n2nnn(C)c2=O)cc1-c1ccc(Cl)cc1` [compound 122]: the pest or weed control at 500 ppm was ≥ 90%.

Regarding `Cc1cc(OCc2c(C)cccc2-n2nnn(C)c2=O)cc(-c2ccccc2)c1` [compound 143], the pest or weed control at 500 ppm was ≥ 90%.

As to `COc1cccc(-c2ccc(Cl)c(OCc3c(C)cccc3-n3nnn(C)c3=O)c2)c1` [compound 135], the pest or weed control at 500 ppm is ≥ 90%.

Take `COc1ccc(-c2cc(C)cc(OCc3c(C)cccc3-n3nnn(C)c3=O)c2)cc1` [compound 142]: the pest or weed control at 500 ppm is ≥ 90%.

With `COc1ccc(-c2cc(OCc3c(C)cccc3-n3nnn(C)c3=O)ccc2OC)cn1` [compound 139], the pest or weed control at 500 ppm was ≥ 90%.

Take `Cc1ccc(OCc2c(C)cccc2-n2nnn(C)c2=O)cc1-c1ccc(F)cc1` [compound 119]: the pest or weed control at 500 ppm was ≥ 90%.

`COc1cccc(-c2cccc(OCc3c(C)cccc3-n3nnn(C)c3=O)c2F)c1` [compound 111]: the pest or weed control at 500 ppm was ≥ 90%.
